The structures appear in SMILES notation. Read-outs that look alike come from different tables or passages of the source.

One experiment deals with PC3^GFP cells. Description: Survival of GFP-labeled PC3 cells alone or co-cultured with WPMY-1 cells. In kind it is cell-based, human. Conditions: Olaparib 5 μM, 10 days, basal and ADT. As for the experimental part: Co-culture assays were performed as described previously (Valencia et al., 2014). Briefly, stromal cells were seeded in TC-treated 6-well plates and allowed to attach for 6 hours before PCa cells were seeded on top of Milicell Cell Culture Inserts (Millipore). Inserts were then placed in the pre-seeded 6-well plate. For co-culture experiments of PC3-GFP label with WPMY-1 cells, 500 PC3 and 1000 WPMY-1 were seeded in a 96 well plate in DMEN containing 10% FBS (basal conditions) or 10% charcoal stripped FBS (ADT conditions) and vehicle (DMSO) or Olaparib 5 μM for 10 days. Media and treatments were refresh every 48 hours. Pictures were taken using EVOS M5000 Imaging System and GFP positive were measured using Fiji (Schindelin et al., 2012).

The subject of experiment [1] is tumor-invaded lymph nodes and bones. The experiment is described as follows: Castrated TRAMP+/FVB mice, IHC of metastatic lymph nodes and bone. The format is in vivo, mouse. Conditions: for αSMA expression and HA deposition in metastatic lymph nodes: 3 weeks. As for the experimental part: (§1) Tissues from indicated mice were isolated, fixed in zinc buffered formalin overnight at 4° C., dehydrated, and embedded in paraffin. Sections (5 μm) were stained with hematoxylin and eosin (H&E). For immunohistochemistry, sections were deparaffinized, rehydrated, and then treated for antigen retrieval. After blocking in Protein Block Serum-Free solutions (DAKO), tissues were incubated with primary antibody overnight at 4° C. followed by incubation with biotinylated secondary antibody. Endogenous peroxidase was quenched in 3% H2O2 in water for 10 minutes at room temperature. Antibodies were visualized with avidin-biotin complex (Vectastain Elite; Vector Laboratories) using diaminobenzidine as the chromogen. Stained sections were analyzed with a Zeiss light microscope supplemented with Zen 3.3 Bule edition software.
For Olaparib treatment in mice, 13 weeks-old male TRAMP^+/FVB were surgical castrated, after 10 days n=16, were randomly distributed to receive vehicle, n=8, or Olaparib n=8 (5 mg/kg/, 5 days each, i.p.). Mice were euthanized 3 weeks after the initiation of the treatment. Prostate and other organs were collected and analyzed histologically.

For another experiment, the system named is TRAMP+ prostate tumors. Description: TRAMP+ prostate tumor model (IHC, scRNAseq). In kind it is in vivo, mouse. On the procedure:
For mouse xenografts using PC3 PCa cells and sgC or sgAP-1 WPMY-1 stromal cells. 7 weeks old NSG mice were surgical castrated and let androgen levels drop for 10 days. Cells were trypsinized washed two times in PBS and resuspend in DMEN. 1×10^6 PC3 and 1×10^6 sgC or sgAP1-A WPMY-1 for each mouse were resuspended in 100 μl DMEM: Matrigel (1:1) and injected subcutaneously into both flanks of immunocompromised NSG mice (PC3+sgC WPMY-1 n=4; PC3+sgAP-1 WPMY-1 n=4). Tumors were allowed to grow for 1 month. Mice were euthanized and tumors were collected and analyzed histologically. For Olaparib treatment in mouse xenografts. PC3 PCa cells and WPMY-1 stromal cells were trypsinized washed two times in PBS and resuspend in DMEN. 1×10^6 PC3 and 1×10^6 WPMY-1 for each mouse were resuspended in 100 μl DMEM: Matrigel (1:1) and injected subcutaneously into both flanks of immunocompromised NSG mice. Tumors were allowed to grow for 14 days, and mouse were randomly divided to receive vehicle, n=10, Olaparib (40 mg/kg, 2 days each week, i.p.), n=10 or Olaparib (40 mg/kg, 2 days each week, i.p.)+_PEGPH20 (0.0375 mg/Kg, 2 days each week, retroorbital injection) n=10. Tumors were measured twice a week. Mice were euthanized 14 days after the initiation of the treatment and tumors were collected and analyzed histologically. For Olaparib treatment in mice, 13 weeks-old male TRAMP^+, n=18, were randomly distributed to receive vehicle, n=9, or Olaparib (40 mg/kg/, 5 days each week, i.p.), n=9. Mice were euthanized 1 month after the initiation of the treatment. Prostate and other organs were collected and analyzed histologically.
as §1
Prostate lobes dissected and washed with cold PBS. Prostate tissue was gently minced with scissors and digested in Advance DMEN/F12 media (Gibco, Thermo Fisher) with 5 mg/ml Collagenase type II (Sigma) supplemented with Y27632 (Tocris) for 1 hour at 37° C. Cells were passed through a 70 μm strainer and centrifuge 5 minutes, 1000 rpm at 4° C. After that, cells were incubated with TrypLE Express (Gibco, Thermo Fisher) supplemented with Y27632 for 20 minutes in agitation at 37° C. to achieve a single cell suspension. TrypLE Express was quenched and washed with Advance DMEN/F12 media and then cells were centrifuged for 5 minutes, 1000 rpm at 4° C. Dead cells were removed by Annexin V ([…] technologies). scRNA-seq libraries were generated using the Chromium Single Cell 30 Reagent Kit v2 (10× Genomics). Cells were loaded onto the 10×Chromium Single Cell Platform (10× Genomics) at a concentration of 2,000 cells per μl (Single Cell 3′ library and Gel Bead Kit v.2) as described in the manufacturer's protocol (10× User Guide, Revision B). On average, approximately 8,000 cells were loaded. Generation of gel beads in emulsion (GEMs), barcoding, GEM-RT clean-up, complementary DNA amplification and library construction were all performed as per the manufacturer's protocol. Individual sample quality was checked using a Bioanalyzer Tapestation (Agilent). Qubit was used for library quantification before pooling. The final library pool was sequenced on an Illumina NovaSeq6000 instrument using a S1 flow cell. […]

A further experiment has as its system WPMY-1 cells. Description: ATAC-seq chromatin accessibility in WPMY-1 cells. As to conditions: Olaparib-treated WPMY-1 cells, 96 h. In kind it is cell-based, human. As for the experimental part:
The cell pellet was resuspended in 50 μl lysis buffer and then spun down 500×g for 10 minutes at 4° C. The nuclei pellet was resuspended into 50 μl transposition reaction mixture containing Tn5 transposase from Nextera DNA Library Prep Kit (Illumina) and incubated at 37° C. for 30 minutes. Then the transposase-associated DNA was purified using MinElute PCR purification kit (QIAGEN). To amplify the library, the DNA was first amplified for 5 cycles using indexing primer from Nextera kit and NEBNext High-Fidelity 2×PCR master mix. To reduce the PCR amplification bias, 5 μl of amplified DNA after the first 5 cycles was used to do qPCR of 20 cycles to decide the number of cycles for the second round of PCR. Usually, the maximum cycle of the second round of PCR is 5 cycles. Then the total amplified DNA was size selected to fragments less than 800 bp using SPRI beads. Quantification of the ATAC-seq library was done with QuBit. The size of the pooled library was examined by TapeStation. Barcoded ATAC-seq libraries were pooled and paired end sequenced (sX75) on the Illumina NextSeq 500 using the High output V2.5 kit (Illumina Inc., San Diego, CA).
Peaks were annotated with ChipSeeker R package. […].

With `O=C(c1cc(Cc2n[nH]c(=O)c3ccccc23)ccc1F)N1CCN(C(=O)C2CC2)CC1` [Olaparib], in the experiment with PC3^GFP cells, the “sensitivity of PC3^GFP cells to Olaparib, co-culture vs monoculture” value was “more resistant to Olaparib”. For the same molecule, in experiment [1], the “HA in bone marrow stromal cells and growth plate” value was “increased HA deposition in the growth plate and stromal areas”; the “αSMA expression and HA deposition in metastatic lymph nodes” value is reported as “increased stromal content upon Olaparib treatment”. In addition, in experiment [1] (listed as Ola), the “αSMA expression and HA deposition in metastatic lymph nodes” value was “increased «SMA expression and higher hyaluronan (HA) deposition”; the “HA in bone marrow stromal cells and growth plate” value is given as “higher levels of HA”. In addition, the “desmoplastic response in the prostate (IHC HA, aSMA)” value in the experiment with TRAMP+ prostate tumors (Olaparib 40 mg/Kg, 5 days a week, 4 weeks) is reported as “induced a strong desmoplastic response in the prostate”. For the same molecule, in the experiment with TRAMP+ prostate tumors (Olaparib 4 weeks), the “AR, EMT and TGFβ signaling signatures in tumor epithelium” value was “increased AR, EMT and TGFβ signaling”; the “Has1, Spink1 and Tgfb2 transcripts in fibroblast population (scRNAseq)” value was “among the most upregulated transcripts”; the “neuroendocrine cluster 2 (NE1) of tumor epithelium (scRNAseq)” value was “completely abolished the neuroendocrine cluster 2”; the “pSMAD2 staining in prostates (IHC)” value is on record as “increased pSMAD2 staining”. The “stromal and immune cell populations (scRNAseq)” value in the experiment on TRAMP+ prostate tumors (Olaparib 4 weeks) was “expansion of the stromal and immune populations”. The “SPINK1 levels in tumor stroma (IHC)” value in the experiment on TRAMP+ prostate tumors (in vivo) is given as “highly upregulated”. In the experiment on WPMY-1 cells, the chromatin accessibility result is listed as “strong decrease in chromatin accessibility across the genome”.

Source of the values: patent publication US20250073234A1, “COMBINATION THERAPIES INCLUDING PARP1 INHIBITORS” (Cornell University, priority 2022, published 2025).
